Like-named read-outs stand apart in the source and are kept apart here.

A word on the melting point: it is the temperature, or range, at which the solid turns liquid.

Data set [1] has as its system non-insulin-dependent diabetes induced in rats by Streptozotocin. The data set can be described thus: Antidiabetic activity by the oral route in the nOSTZ rat model of non-insulin-dependent diabetes. Type of data set: in vivo. The settings on record: 96 h, nOSTZ diabetic rats; for change in vivo at 20 mg/kg: 20 mg/kg/4d; for change in vivo at 200 mg/kg: 200 mg/kg/4d. The protocol: To determine an antidiabetic activity by the oral route on an experimental model of non-insulin-dependent diabetes induced in rats by Streptozotocin.
The non-insulin-dependent diabetes model is obtained in rats by a neonatal injection (on the day of birth) of Streptozotocin.
The diabetic rats used are 8 weeks old.
The animals are kept, from the day of their birth to the day of the experiment, in an animal house at a regulated temperature of 21 to 22° C., and subjected to a fixed cycle of light (from 7.00 h to 19.00 h) and of darkness (from 19.00 h to 7.00 h). Their diet consisted of a maintenance diet; water and food were provided “ad libitum”, with the exception of the 2 hours of fasting preceding the tests where food is withdrawn.
On the day of the experiment, the rats are treated orally with the test product, and then 90′ later, are anaesthetized with Nembutal. 2 hours after the administration of the product, a 500-μl blood sample is collected from the tail.
The blood is collected over Heparin. All the tubes are placed on ice at the time the samples are collected. These are then centrifuged for 10 minutes at 3000 revolutions/minute to separate the organized elements as rapidly as possible.
The plasma obtained is distributed into 2 aliquots: one for the assay of glycaemia and lactatamia; these assays are carried out immediately the other for the assay of insulinaemia—is stored in the freezer at −20° C. up to the day of the assay They are determined by the glucose oxydase and lactate oxydase technique (Eppendorf Ebio 6666) The plasma insulin is assayed by a radio-immunological method

The compound `O=C1NC(=O)C(CC2COc3ccccc3O2)S1` (centres unmarked) [Compound 7] returned a melting point of 145 °C. Moreover, in data set [1] (read-out: % Glycaemia), the change in vivo at 20 mg/kg amounted to 1% and the change in vivo at 200 mg/kg is -10%. In data set [1] (read-out: % Insulinaemia), the change in vivo at 20 mg/kg turned out to be 6% and the change in vivo at 200 mg/kg was -47%.
The corresponding values for `O=C1NC(=O)C(CCOc2ccc3ccccc3c2)S1` (centres unmarked) [Compound 15] are 133 °C, -14%, -22%, -9% and -12%.
`O=C1NC(=O)C(CCOc2ccc(F)cc2)S1` (centres unmarked) [Compound 2, 5-[2-(4-fluorophenoxy)ethyl]-2,4-thiazolidinedione] yielded a melting point of 94 to 96 °C. Further, in data set [1] (read-out: % Glycaemia), the change in vivo at 20 mg/kg was -2% and the change in vivo at 200 mg/kg is -19%. Also, in data set [1] (read-out: % Insulinaemia), the change in vivo at 20 mg/kg was -1% and the change in vivo at 200 mg/kg was -27%.
As to `Cc1ccc(C)c(OCCC2SC(=O)NC2=O)c1` (centres unmarked) [Compound 18], in data set [1] (read-out: % Glycaemia), the change in vivo at 20 mg/kg is -8% and the change in vivo at 200 mg/kg was -9%. For the same compound, in data set [1] (read-out: % Insulinaemia), the change in vivo at 20 mg/kg was -4% and the change in vivo at 200 mg/kg is -17%.
`O=C1NC(=O)C(CCCCCCOc2ccc(Cl)cc2)S1` (centres unmarked) [Compound 9]: the melting point is 68 to 70 °C. In data set [1] (read-out: % Glycaemia), the change in vivo at 20 mg/kg was found to be 10% and the change in vivo at 200 mg/kg was -16%. Further, in data set [1] (read-out: % Insulinaemia), the change in vivo at 20 mg/kg is -15% and the change in vivo at 200 mg/kg is -30%.
Compound `COCCc1ccc(OCCC2SC(=O)NC2=O)cc1` (centres unmarked) [Compound 20] showed a melting point of 101 to 103 °C. For the same compound, in data set [1] (read-out: % Glycaemia), the change in vivo at 20 mg/kg was -10% and the change in vivo at 200 mg/kg was -14%.
`O=C1NC(=O)C(CCOc2ccccc2F)S1` (centres unmarked) [Compound 14] returned a melting point of 138 °C. In data set [1] (read-out: % Glycaemia), the change in vivo at 20 mg/kg was -4% and the change in vivo at 200 mg/kg was -7%. Further, in data set [1] (read-out: % Insulinaemia), the change in vivo at 20 mg/kg is -23% and the change in vivo at 200 mg/kg was -51%.
Take `O=C1NC(=O)C(CCOc2ccccc2)S1` (centres unmarked) [Compound 1, 5-(2-phenoxyethyl)-2,4-thiazolidinedione]: in data set [1] (read-out: % Glycaemia), the change in vivo at 20 mg/kg is -15% and the change in vivo at 200 mg/kg is -26%.
For `O=C1NC(=O)C(C(COc2ccc(F)cc2)c2ccccc2)S1` (centres unmarked) [Compound 12], the melting point came to 121 °C. In addition, in data set [1] (read-out: % Glycaemia), the change in vivo at 20 mg/kg is -6% and the change in vivo at 200 mg/kg was -6%. Besides, in data set [1] (read-out: % Insulinaemia), the change in vivo at 20 mg/kg is -35% and the change in vivo at 200 mg/kg is -56%.
Compound `O=C1NC(=O)C(CCCCCOc2ccc(F)cc2)S1` (centres unmarked) [Compound 10] gave a melting point of 98 to 100 °C. Besides, in data set [1] (read-out: % Glycaemia), the change in vivo at 20 mg/kg was -1% and the change in vivo at 200 mg/kg was -9%. In data set [1] (read-out: % Insulinaemia), the change in vivo at 20 mg/kg is -12% and the change in vivo at 200 mg/kg is -48%.
`O=C1NC(=O)C(CCOc2ccc(C(=O)O)cc2)S1` (centres unmarked) [Compound 21] had a melting point of 234 to 236 °C. For the same compound, in data set [1] (read-out: % Glycaemia), the change in vivo at 20 mg/kg is -1% and the change in vivo at 200 mg/kg is -9%.
`N#Cc1ccc(OCCC2SC(=O)NC2=O)cc1` (centres unmarked) [Compound 6, 5-[2-(4-cyanophenoxy)ethyl]-2,4-thiazolidinedione]: in data set [1] (read-out: % Glycaemia), the change in vivo at 20 mg/kg is -20% and the change in vivo at 200 mg/kg was -26%. Further, in data set [1] (read-out: % Insulinaemia), the change in vivo at 20 mg/kg was 0% and the change in vivo at 200 mg/kg is -49%.
For the compound `O=C1NC(=O)C(CC(O)COc2ccc(F)cc2)S1` (centres unmarked) [Compound 17, 5-{[2-hydroxy-3-(4-fluorophenoxy)]propyl}-2,4-thiazolidinedione], the melting point was in the range of 96 to 98 °C. Also, in data set [1] (read-out: % Glycaemia), the change in vivo at 20 mg/kg is -20% and the change in vivo at 200 mg/kg was -7%. Besides, in data set [1] (read-out: % Insulinaemia), the change in vivo at 20 mg/kg was 4% and the change in vivo at 200 mg/kg was -5%.
In turn, `O=C1NC(=O)C(CCOc2cccc3ccccc23)S1` (centres unmarked) [Compound 11] gave a melting point of 185 to 187 °C. Moreover, in data set [1] (read-out: % Glycaemia), the change in vivo at 20 mg/kg was -12% and the change in vivo at 200 mg/kg is -21%. Also, in data set [1] (read-out: % Insulinaemia), the change in vivo at 20 mg/kg is -31% and the change in vivo at 200 mg/kg is -23%.
In the case of `O=C1NC(=O)C(CCOc2ccc(Br)cc2)S1` (centres unmarked) [Compound 5], the melting point is 104 to 106 °C. In addition, in data set [1] (read-out: % Glycaemia), the change in vivo at 20 mg/kg was -10% and the change in vivo at 200 mg/kg was -23%. For the same compound, in data set [1] (read-out: % Insulinaemia), the change in vivo at 20 mg/kg was -9% and the change in vivo at 200 mg/kg is -62%.
The compound `Cc1ccc(OCCC2SC(=O)NC2=O)cc1` (centres unmarked) [Compound 8] showed a melting point of 119 to 121 °C. Besides, in data set [1] (read-out: % Glycaemia), the change in vivo at 20 mg/kg was -3% and the change in vivo at 200 mg/kg was -9%. In data set [1] (read-out: % Insulinaemia), the change in vivo at 20 mg/kg is -30% and the change in vivo at 200 mg/kg is -26%.
Take `Cc1ccc(C)c(OCCC2SC(=O)NC2=O)c1` (centres unmarked) (hydrate or solvate) [Compound 18]: the melting point lay within 134 to 136 °C.
For the compound `O=C1NC(=O)C(CCCOc2ccc(F)cc2)S1` (centres unmarked) [Compound 3, 5-[3-(4-fluorophenoxy)propyl]-2,4-thiazolidinedione], the melting point was 121 to 123 °C. In data set [1] (read-out: % Glycaemia), the change in vivo at 20 mg/kg is -17% and the change in vivo at 200 mg/kg was -17%. Further, in data set [1] (read-out: % Insulinaemia), the change in vivo at 20 mg/kg was 1% and the change in vivo at 200 mg/kg was -37%.
Compound `O=C1NC(=O)C(CCOc2cccc(F)c2)S1` (centres unmarked) [Compound 13] returned a melting point of 87 °C. Besides, in data set [1] (read-out: % Glycaemia), the change in vivo at 20 mg/kg is -14% and the change in vivo at 200 mg/kg is -2%.
With `O=C1NC(=O)C(CCOc2ccc(Cl)cc2)S1` (centres unmarked) [Compound 4], the melting point was 116 to 118 °C. Besides, in data set [1] (read-out: % Glycaemia), the change in vivo at 20 mg/kg is -3% and the change in vivo at 200 mg/kg is -17%. Moreover, in data set [1] (read-out: % Insulinaemia), the change in vivo at 20 mg/kg was -35% and the change in vivo at 200 mg/kg is -33%.
With `O=C1NC(=O)C(C(O)COc2ccc(F)cc2)S1` (centres unmarked) [Compound 16, 5-{[1-hydroxy-2-(4-fluorophenoxy)]ethyl}-2,4-thiazolidinedione], the melting point fell in the range of 131 to 133 °C. Moreover, in data set [1] (read-out: % Glycaemia), the change in vivo at 20 mg/kg was -6% and the change in vivo at 200 mg/kg is -22%. In data set [1] (read-out: % Insulinaemia), the change in vivo at 20 mg/kg was -12% and the change in vivo at 200 mg/kg turned out to be 0%.
`CC(COc1ccccc1)C1SC(=O)NC1=O` (centres unmarked) [Compound 19, 5-[1-methyl-2-phenoxyethyl]-2,4-thiazolidinedione] returned a melting point of 106 to 108 °C. For the same compound, in data set [1] (read-out: % Glycaemia), the change in vivo at 20 mg/kg was -6% and the change in vivo at 200 mg/kg was -20%. In addition, in data set [1] (read-out: % Insulinaemia), the change in vivo at 20 mg/kg turned out to be 2% and the change in vivo at 200 mg/kg was -10%.

The values are drawn from patent US6437143B1, “Thiazolidone-2 derivatives, 4-diketone substituted, method for obtaining them and pharmaceutical compositions containing same” (Merck Patent Gesellschaft mit beschrankter Haftung, priority 1996, dated 2002).
